Each structure is given as a SMILES string.

From BindingDB's records for doi:10.1016/j.bmc.2007.01.044 (University of San Francisco, 2007) come the findings set out here.

The assay concerns the target T1, UDP-3-O-acyl-N-acetylglucosamine deacetylase (Aquifex aeolicus (strain VF5), UniProt O67648).
T1 sequence (O67648 whole entry): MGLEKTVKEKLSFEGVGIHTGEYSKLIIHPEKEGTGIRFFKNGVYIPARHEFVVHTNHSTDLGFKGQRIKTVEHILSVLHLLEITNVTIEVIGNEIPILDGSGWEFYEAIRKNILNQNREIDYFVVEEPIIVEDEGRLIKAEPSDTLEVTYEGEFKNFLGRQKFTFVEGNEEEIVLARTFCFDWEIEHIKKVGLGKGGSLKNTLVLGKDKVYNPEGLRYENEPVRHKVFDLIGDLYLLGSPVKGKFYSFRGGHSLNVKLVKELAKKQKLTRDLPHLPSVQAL
As to the kind of experiment: Ligand Affinity Measurements. The settings on record: pH 7; 30 °C. As to the method: Ligand binding to A. aeolicus LpxC was assayed by isothermal titration using isothermal microcalorimeter from Microcal, Inc. (Northampton, MA). The enzyme was stripped of all metal ions, and was reconstituted with Zn2+ (1:1 ratio) by the addition of ZnSO4. The calorimeter cell contained enzyme (40 or 60 uM), and the syringe contained ligand (250 or 400 uM). A series of 30 injections of 8 ul each were performed at 180-s intervals. Titrations of aliphatic compounds into buffer were also performed as control experiments using identical conditions. Data were fit to a single binding site model using Origin v. 2.9.
As for `CCCCCCCC(=O)O` [octanoic acid], the dissociation constant (Kd) (as a rule, the free concentration of one partner at which half of the binding sites on the other are occupied at equilibrium, for simple one-to-one binding) is over 100 µM. With `CCCCCCCCCC(=O)O` [decanoate] the figure was 7 µM; with `CCCCCCCCCCCC(=O)O` [dodecanoate], 0.9 µM.
